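Following 48 hours of exposure in 96-well plates, responses at five concentrations were used to interpolate endpoints linearly. GI50 marks 50% less growth.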 Activity calls are given as the source filed them. No stated cut-off is given here; in the data, active = GI50 up to about 1.1 µM and inactive = higher.
How the values were obtained:
Test in all cases: NCI anticancer screen, dose series, 48 h
OVCAR-5 = tested on: OVCAR-5
SR = tested on: SR
HCC 2998 = tested on: HCC 2998
K562 = tested on: K562
OVCAR-8 = tested on: OVCAR-8
SF-268 = tested on: SF-268
SN12C = tested on: SN12C
MOLT-4 = tested on: MOLT-4
UACC-62 = tested on: UACC-62
HCT-116 = tested on: HCT-116
NCI-H522 = tested on: NCI-H522
HCT-15 = tested on: HCT-15
SF-539 = tested on: SF-539
RXF 393 = tested on: RXF 393
NCI-H460 = tested on: NCI-H460

| Compound | GI50 (OVCAR-5) | GI50 (SR) | GI50 (HCC 2998) | GI50 (K562) | GI50 (OVCAR-8) | GI50 (SF-268) | GI50 (SN12C) | GI50 (MOLT-4) | GI50 (UACC-62) | GI50 (HCT-116) | GI50 (NCI-H522) | GI50 (HCT-15) | GI50 (SF-539) | GI50 (RXF 393) | GI50 (NCI-H460) |
| --- | --- | --- | --- | --- | --- | --- | --- | --- | --- | --- | --- | --- | --- | --- | --- |
| O=C1c2c(nc3ccccc3c2-c2ccccc2)CN1Nc1ccccc1 | > 100 µM (inactive) | > 100 µM (inactive) | > 100 µM (inactive) | > 100 µM (inactive) | > 100 µM (inactive) | > 100 µM (inactive) | > 100 µM (inactive) | > 100 µM (inactive) | > 100 µM (inactive) | > 100 µM (inactive) | > 100 µM (inactive) |  |  |  |  |
| CC1CC2(CC[C@@H]1O)OCCO2 (stereo not given in full) |  |  | > 100 µM (inactive) | > 100 µM (inactive) | > 100 µM (inactive) |  | > 100 µM (inactive) | > 100 µM (inactive) | > 100 µM (inactive) | > 100 µM (inactive) | > 100 µM (inactive) | > 100 µM | > 100 µM (inactive) | > 100 µM (inactive) | > 100 µM (inactive) |
| CC(C)C(Sc1nc(-c2ccccc2)c(-c2ccccc2)[nH]1)C(=O)N/N=C/c1ccc([N+](=O)[O-])cc1 (stereo not given) | 20.1 µM (inactive) | 1.12 µM (inactive) |  |  | 29.1 µM (inactive) | 18.5 µM (inactive) | 12.5 µM (inactive) | 1.93 µM (inactive) | 15.6 µM (inactive) | 14.5 µM (inactive) | 15.3 µM (inactive) | 12.5 µM | 20.5 µM (inactive) |  | 9.46 µM (inactive) |
| COc1ccc2nc(NC(=O)C(=O)NNC(=O)c3ccncc3)sc2c1 |  |  | > 100 µM (inactive) | > 100 µM (inactive) | > 100 µM (inactive) | > 100 µM (inactive) | > 100 µM (inactive) |  | > 100 µM (inactive) | > 100 µM (inactive) | > 100 µM (inactive) | > 100 µM | > 100 µM (inactive) | > 100 µM (inactive) | > 100 µM (inactive) |
| c1ccc2c(c1)C1CCCCCC21N1CCOCC1 (stereo not given) | > 100 µM (inactive) |  | > 100 µM (inactive) | 45.1 µM (inactive) | > 100 µM (inactive) | > 100 µM (inactive) | > 100 µM (inactive) | 32.6 µM (inactive) | > 100 µM (inactive) | 54.2 µM (inactive) | 52.4 µM (inactive) | 52 µM | > 100 µM (inactive) | > 100 µM (inactive) | 69 µM (inactive) |
| Cc1nc2c(ccc3ncccc32)[nH]1 | > 100 µM (inactive) |  | > 100 µM (inactive) | > 100 µM (inactive) | > 100 µM (inactive) | > 100 µM (inactive) | > 100 µM (inactive) | > 100 µM (inactive) | > 100 µM (inactive) |  | > 100 µM (inactive) | > 100 µM | > 100 µM (inactive) | > 100 µM (inactive) | > 100 µM (inactive) |
| COc1ccc(/C=C2/CCCC/C2=N/O)cc1 | > 100 µM (inactive) |  | > 100 µM (inactive) | > 10 µM (inactive) | > 100 µM (inactive) | 57.9 µM (inactive) | 75.7 µM (inactive) | 42.2 µM (inactive) | > 100 µM (inactive) | 87.7 µM (inactive) | 40.5 µM (inactive) | > 100 µM | > 100 µM (inactive) | 40.8 µM (inactive) | > 100 µM (inactive) |
| CC(C)(C)c1cc(COc2c3sc(=S)sc3c(OCc3cc(C(C)(C)C)cc(C(C)(C)C)c3)c3sc(=S)sc23)cc(C(C)(C)C)c1 |  |  | > 100 µM (inactive) | > 100 µM (inactive) | > 100 µM (inactive) |  | > 100 µM (inactive) | > 100 µM (inactive) | > 100 µM (inactive) | > 100 µM (inactive) |  | > 100 µM | > 100 µM (inactive) | > 100 µM (inactive) | > 100 µM (inactive) |
| COC/C=C\COC | > 100 µM (inactive) |  | > 100 µM (inactive) | > 100 µM (inactive) | > 100 µM (inactive) |  | > 100 µM (inactive) | > 100 µM (inactive) | > 100 µM (inactive) | > 100 µM (inactive) |  | > 100 µM |  | > 100 µM (inactive) | > 100 µM (inactive) |

From ChEMBL document CHEMBL1201862, “PubChem BioAssay data set” (2004)
